Measurements as given in ChEMBL document CHEMBL1201862, “PubChem BioAssay data set” (2004).
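Test compounds were applied to cells in 96-well plates for 48 hours at 5 doses. GI50: concentration for 50% inhibition of growth.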 Activity calls are given as the source filed them. Rule as the data show it: active = GI50 up to about 1.1 µM and inactive = higher.

Key:
Assay in all cases: inhibition of tumour cell growth, NCI panel, 48 h
786-0 = test system: 786-0
A498 = test system: A498
A549 = test system: A549
ACHN = test system: ACHN
CAKI-1 = test system: CAKI-1
CCRF-CEM = test system: CCRF-CEM
COLO 205 = test system: COLO 205
DLD-1 = test system: DLD-1
DMS-114 = test system: DMS-114
DMS-273 = test system: DMS-273
EKVX = test system: EKVX
HCC 2998 = test system: HCC 2998
HCT-116 = test system: HCT-116
HCT-15 = test system: HCT-15
HL-60 = test system: HL-60
HOP-18 = test system: HOP-18
HOP-62 = test system: HOP-62
HOP-92 = test system: HOP-92
HT-29 = test system: HT-29
IGROV-1 = test system: IGROV-1
K562 = test system: K562
KM-20L2 = test system: KM-20L2
KM12 = test system: KM12
LOX IMVI = test system: LOX IMVI
LXFL 529 = test system: LXFL 529
M14 = test system: M14
M19-MEL = test system: M19-MEL
MOLT-4 = test system: MOLT-4
NCI-H226 = test system: NCI-H226
NCI-H23 = test system: NCI-H23
NCI-H460 = test system: NCI-H460
NCI-H522 = test system: NCI-H522
OVCAR-3 = test system: OVCAR-3
OVCAR-4 = test system: OVCAR-4
OVCAR-5 = test system: OVCAR-5
OVCAR-8 = test system: OVCAR-8
RPMI-8226 = test system: RPMI-8226
RXF 393 = test system: RXF 393
SF-268 = test system: SF-268
SF-295 = test system: SF-295
SF-539 = test system: SF-539
SK-MEL-28 = test system: SK-MEL-28
SK-MEL-2 = test system: SK-MEL-2
SK-MEL-5 = test system: SK-MEL-5
SK-OV-3 = test system: SK-OV-3
SN12C = test system: SN12C
SNB-19 = test system: SNB-19
SNB-75 = test system: SNB-75
SNB-78 = test system: SNB-78
SR = test system: SR
SW-620 = test system: SW-620
TK-10 = test system: TK-10
U-251 = test system: U-251
UACC-257 = test system: UACC-257
UACC-62 = test system: UACC-62
UO-31 = test system: UO-31
Malme-3M = test system: Malme-3M

Measured: GI50

O=c1cc(CO)oc2c3c(cc(O)c12)OCC(COC1OC(CO)C(O)C(O)C1O)=CC3 (configuration not stated)
inactive: 786-0 > 100 µM | A498 > 100 µM | A549 > 100 µM | ACHN > 100 µM | CAKI-1 > 100 µM | CCRF-CEM > 100 µM | COLO 205 > 100 µM | DLD-1 > 100 µM | DMS-114 > 100 µM | DMS-273 > 100 µM | EKVX > 100 µM | HCC 2998 > 100 µM | HCT-116 > 100 µM | HL-60 > 100 µM | HOP-18 > 100 µM | HOP-62 > 100 µM | HOP-92 > 100 µM | HT-29 > 100 µM | IGROV-1 > 100 µM | K562 > 100 µM | KM-20L2 > 100 µM | KM12 > 100 µM | LOX IMVI > 100 µM | LXFL 529 > 100 µM | M14 > 100 µM | M19-MEL > 100 µM | MOLT-4 > 100 µM | NCI-H226 > 100 µM | NCI-H23 > 100 µM | NCI-H460 > 100 µM | NCI-H522 > 100 µM | OVCAR-3 > 100 µM | OVCAR-4 > 100 µM | OVCAR-5 > 100 µM | OVCAR-8 > 100 µM | RPMI-8226 > 100 µM | RXF 393 > 100 µM | SF-268 > 100 µM | SF-295 > 100 µM | SF-539 > 100 µM | SK-MEL-28 > 100 µM | SK-MEL-2 > 100 µM | SK-MEL-5 > 100 µM | SK-OV-3 > 100 µM | SN12C > 100 µM | SNB-19 > 100 µM | SNB-75 > 100 µM | SNB-78 > 100 µM | SR > 100 µM | SW-620 > 100 µM | TK-10 > 100 µM | U-251 > 100 µM | UACC-257 > 100 µM | UACC-62 > 100 µM | UO-31 > 100 µM
> 100 µM: HCT-15

Clc1ccc(C(n2cc(Br)cn2)n2cc(Br)cn2)cc1
13.8 µM: HCT-15
active: UO-31 0.267 µM
inactive: 786-0 14.1 µM | A498 18.3 µM | A549 14.7 µM | ACHN 14.5 µM | CAKI-1 11.1 µM | CCRF-CEM 21.3 µM | COLO 205 16.1 µM | DMS-273 18.8 µM | EKVX 19.7 µM | HCC 2998 16.4 µM | HL-60 17.8 µM | HOP-18 18.1 µM | HOP-62 17.8 µM | HOP-92 15 µM | HT-29 13.2 µM | IGROV-1 18.7 µM | K562 18 µM | KM12 13.5 µM | LXFL 529 14.9 µM | M14 16.8 µM | M19-MEL 16.9 µM | MOLT-4 16.5 µM | Malme-3M 15.8 µM | NCI-H226 8.91 µM | NCI-H23 17.9 µM | NCI-H460 16.1 µM | NCI-H522 13.3 µM | OVCAR-3 14.1 µM | OVCAR-4 12 µM | OVCAR-5 16 µM | OVCAR-8 18.5 µM | RPMI-8226 19.9 µM | RXF 393 14.5 µM | SF-268 16.4 µM | SF-295 15 µM | SF-539 > 10 µM | SK-MEL-28 17.8 µM | SK-MEL-2 16.8 µM | SK-MEL-5 14 µM | SK-OV-3 35.1 µM | SN12C 16.8 µM | SNB-19 > 10 µM | SNB-75 > 10 µM | SNB-78 19.7 µM | SW-620 17 µM | TK-10 17.4 µM | U-251 16.3 µM | UACC-257 14.7 µM | UACC-62 13.4 µM
